Where only a bound is given, the exact number is not on record here.

The first assay deals with T1, purified recombinant human p38 alpha MAPK (Homo sapiens, UniProt Q16539).
T1 construct: purchased Millipore, USA
T1 sequence (Q16539 whole entry): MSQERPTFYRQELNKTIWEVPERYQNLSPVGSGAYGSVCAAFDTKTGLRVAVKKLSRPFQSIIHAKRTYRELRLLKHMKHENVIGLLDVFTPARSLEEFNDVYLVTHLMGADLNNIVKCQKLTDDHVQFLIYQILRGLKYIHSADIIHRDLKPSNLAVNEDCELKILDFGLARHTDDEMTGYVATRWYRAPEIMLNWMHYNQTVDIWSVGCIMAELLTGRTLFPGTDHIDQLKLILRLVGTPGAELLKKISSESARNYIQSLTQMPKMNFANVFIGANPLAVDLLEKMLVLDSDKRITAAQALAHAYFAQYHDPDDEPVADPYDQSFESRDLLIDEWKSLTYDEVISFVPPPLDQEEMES
In words: Inhibition of p38 alpha MAPK activity: TR-FRET kinase assay. The assay is classed as biochemical. Conditions: Concentration 1 μM. The method, then:
Inhibition of p38 Alpha MAPK Activity: Time-Resolved Fluorescence Resonance Energy Transfer Kinase Standard Assay (TR-FRET Assay)
Compounds of present invention at various concentrations were premixed with DMSO. The experiment was initiated by mixing 0.5% 1.0% DMSO as vehicle/compounds with purified recombinant human p38 alpha MAPK (Millipore, USA) in the wells and 15 min incubation at RT. Thereafter, 30 nM of Biotinylated GST-ATF2 (Activation Transcription Factor2) and 100 μM of ATP were added in to the wells containing reaction mixture, followed by reincubation for 60 minutes at RT. Reaction was terminated by addition of 10 mM of EDTA and detection reagent containing anti-phosphothreonine ATF2 antibody (Perkin Elmer, USA) labelled with europium chelate and APC (Allophycocyanin) labeled streptavidin, into the reaction mixture which was further incubated for 60 minutes at room temperature. The degree of phosphorylation of the substrate (GST-ATF2) was measured using Envision multimode reader (Perkin Elmer). Percentage inhibition of p38 kinase activity was calculated by determining ratio of specific europium 665 nm energy transfer signal to reference 615 nm signal.
(TR-FRET usually uses a lanthanide donor and a delayed reading to cut background.)
Consider “7-{[4-({[3-tert-butyl-1-(4-hydroxyphenyl)-1H-pyrazol-5-yl]carbamoyl}amino)phenyl]sulfanyl}-N-(2-hydroxyethyl)imidazo[2,1-b][1,3]benzothiazole-3-carboxamide [Compound 11]”, for which the “P38α Inhibition” value is “++ (++ = Inhibition ≥20% ≤ 40%)”.

Consider “1-(3-tert-butyl-1-phenyl-1H-pyrazol-5-yl)-3-(2-{[3-(hydroxymethyl)-2-methylimidazo[2,1-b][1,3]benzothiazol-7-yl]oxy}benzyl)urea [Compound 38]”, for which the “P38α Inhibition” value was “+++++ (+++++ = Inhibition ≥80% ≤ 100%)”.

Still in this assay, the particulars now being: Concentration 1 μM; read-out: P38α Inhibition.
A word on the inhibition: it is the change of the read-out against control, counted positive when it falls. As for `COCc1c(C)nc2sc3cc(Oc4ccccc4CNC(=O)Nc4cc(C(C)(C)C)nn4-c4ccc(O)c(Cl)c4)ccc3n12` [Compound 37, 1-[3-tert-butyl-1-(3-chloro-4-hydroxyphenyl)-1H-pyrazol-5-yl]-3-(2-{[3-(methoxymethyl)-2-methylimidazo[2,1-b][1,3]benzothiazol-7-yl]oxy}benzyl)urea], the inhibition at 1 µM lay within 80 to 100%.

Take `Cc1ccc(-n2nc(C(C)(C)C)cc2NC(=O)Nc2ccc(Oc3ccc4c(c3)sc3nc(C(=O)NCCN5CCOCC5)cn34)cc2)cc1` [Compound 2, 7-[4-({[3-tert-butyl-1-(4-methylphenyl)-1H-pyrazol-5-yl]carbamoyl}amino)phenoxy]-N-[2-(morpholin-4-yl)ethyl]imidazo[2,1-b][1,3]benzothiazole-2-carboxamide]: the inhibition at 1 µM lay within 60 to 80%.

With `CC(C)(C)c1cc(NC(=O)Nc2ccc(Sc3ccc4c(c3)sc3ncc(CO)n34)cc2)n(-c2ccc(O)cc2)n1` [Compound 18, 1-[3-tert-butyl-1-(4-hydroxyphenyl)-1H-pyrazol-5-yl]-3-(4-{[3-(hydroxymethyl)imidazo[2,1-b][1,3]benzothiazol-7-yl]sulfanyl}phenyl)urea], the inhibition at 1 µM was in the range of 40 to 60%.

Consider `CCOC(=O)c1cnc2sc3cc(Oc4ccc(NC(=O)Nc5cc(C(C)(C)C)nn5-c5ccc(OC)c(Cl)c5)cc4)ccc3n12` [Compound 5, ethyl 7-[4-({[3-tert-butyl-1-(3-chloro-4-methoxyphenyl)-1H-pyrazol-5-yl]carbamoyl}amino)phenoxy]imidazo[2,1-b][1,3]benzothiazole-3-carboxylate], for which the inhibition at 1 µM lay in the range of 20 to 40%.

As for `Cc1nc2sc3cc(Oc4ccccc4CNC(=O)Nc4cc(C(C)(C)C)nn4-c4ccc(O)c(Cl)c4)ccc3n2c1CN1CCOCC1` [Compound 40, 1-[3-tert-butyl-1-(3-chloro-4-hydroxyphenyl)-1H-pyrazol-5-yl]-3-(2-{[2-methyl-3-(morpholin-4-ylmethyl)imidazo[2,1-b][1,3]benzothiazol-7-yl]oxy}benzyl)urea], the inhibition at 1 µM lay within 80 to 100%.

With `CC(C)(C)c1cc(NC(=O)Nc2ccc(Oc3ccc4c(c3)sc3ncc(C(=O)O)n34)cc2)n(-c2ccc(O)c(Cl)c2)n1` [Compound 8, 7-[4-({[3-tert-butyl-1-(3-chloro-4-hydroxyphenyl)-1H-pyrazol-5-yl]carbamoyl}amino)phenoxy]imidazo[2,1-b][1,3]benzothiazole-3-carboxylic acid], the inhibition at 1 µM was 80 to 100%.

Regarding `COc1ccc(-n2nc(C(C)(C)C)cc2NC(=O)Nc2ccc(Oc3ccc4c(c3)sc3ncc(C(=O)NCCO)n34)cc2)cc1Cl` [Compound 7, 7-[4-({[3-tert-butyl-1-(3-chloro-4-methoxyphenyl)-1H-pyrazol-5-yl]carbamoyl}amino)phenoxy]-N-(2-hydroxyethyl)imidazo[2,1-b][1,3]benzothiazole-3-carboxamide], the inhibition at 1 µM was in the range of 60 to 80%.

In the case of `CC(C)(C)c1cc(NC(=O)NCc2ccccc2Oc2ccc3c(c2)sc2ncc(CSCCO)n23)n(-c2ccc(O)c(Cl)c2)n1` [Compound 23, 1-[3-tert-butyl-1-(3-chloro-4-hydroxyphenyl)-1H-pyrazol-5-yl]-3-{2-[(3-{[(2-hydroxyethyl)sulfanyl]methyl}imidazo[2,1-b][1,3]benzothiazol-7-yl)oxy]benzyl}urea], the inhibition at 1 µM fell in the range of 80 to 100%.

Consider `CCOC(=O)c1cnc2sc3cc(Oc4ccccc4CNC(=O)Nc4ccc(OC)c(Cl)c4)ccc3n12` [Compound 44, ethyl 7-[2-({[(3-chloro-4-methoxyphenyl)carbamoyl]amino}methyl)phenoxy]imidazo[2,1-b][1,3]benzothiazole-3-carboxylate], for which the inhibition at 1 µM was 40 to 60%.

In the case of `COc1c(NC(=O)NCc2ccccc2Oc2ccc3c(c2)sc2ncc(CN4CCOCC4)n23)cc(C(C)(C)C)cc1NS(C)(=O)=O` [Compound 74, N-(5-tert-butyl-2-methoxy-3-{[(2-{[3-(morpholin-4-ylmethyl)imidazo[2,1-b][1,3]benzothiazol-7-yl]oxy}benzyl)carbamoyl]amino}phenyl) methanesulfonamide], the inhibition at 1 µM lay within 60 to 80%.

Turning to `COCc1c(C)nc2sc3cc(Oc4ccccc4CNC(=O)Nc4ccc(OC)c(Cl)c4)ccc3n12` [Compound 48, 1-(3-chloro-4-methoxyphenyl)-3-(2-{[3-(methoxymethyl)-2-methylimidazo[2,1-b][1,3]benzothiazol-7-yl]oxy}benzyl)urea], the inhibition at 1 µM is 60 to 80%.

For `CCOC(=O)c1cnc2sc3cc(Oc4ccc(NC(=O)Nc5ccc(Cl)c(C(F)(F)F)c5)cc4)ccc3n12` [Compound 47, ethyl 7-[4-({[4-chloro-3-(trifluoromethyl)phenyl]carbamoyl}amino)phenoxy]imidazo[2,1-b][1,3]benzothiazole-3-carboxylate], the inhibition at 1 µM is ≤ 20%.

Regarding `COCc1c(C)nc2sc3cc(Oc4ccccc4CNC(=O)Nc4ccc(Cl)c(C(F)(F)F)c4)ccc3n12` [Compound 49, 1-[4-chloro-3-(trifluoromethyl)phenyl]-3-(2-{[3-(methoxymethyl)-2-methylimidazo[2,1-b][1,3]benzothiazol-7-yl]oxy}benzyl)urea], the inhibition at 1 µM fell in the range of 80 to 100%.

For the molecule `CCOC(=O)CSCc1cn2c(n1)sc1cc(Oc3ccccc3CNC(=O)Nc3cc(C(C)(C)C)nn3-c3ccc(O)c(Cl)c3)ccc12` [Compound 30, ethyl {[(7-{2-[({[3-tert-butyl-1-(3-chloro-4-hydroxyphenyl)-1H-pyrazol-5-yl]carbamoyl}amino)methyl]phenoxy}imidazo[2,1-b][1,3]benzothiazol-2-yl)methyl]sulfanyl}acetate], the inhibition at 1 µM fell in the range of 80 to 100%.

Turning to `Cc1cnc(-c2cnc3sc4cc(Oc5ccccc5CNC(=O)Nc5cc(C(C)(C)C)nn5-c5ccc(O)c(Cl)c5)ccc4n23)o1` [Compound 64, 1-[3-tert-butyl-1-(3-chloro-4-hydroxyphenyl)-1H-pyrazol-5-yl]-3-(2-{[3-(5-methyl-1,3-oxazol-2-yl)imidazo[2,1-b][1,3]benzothiazol-7-yl]oxy}benzyl)urea], the inhibition at 1 µM was 60 to 80%.

In the case of `CCOC(=O)c1cnc2sc3cc(Oc4ccccc4CNC(=O)Nc4cc(OC)cc(OC)c4)ccc3n12` [Compound 45, ethyl 7-[2-({[(3,5-dimethoxyphenyl)carbamoyl]amino}methyl)phenoxy]imidazo[2,1-b][1,3]benzothiazole-3-carboxylate], the inhibition at 1 µM is ≤ 20%.

Turning to `Cc1ccc(-n2nc(C(C)(C)C)cc2NC(=O)Nc2ccc(Oc3ccc4c(c3)sc3nc(C(=O)NC(CO)c5ccccc5)cn34)cc2)cc1` (stereo not drawn) [Compound 3, 7-[4-({[3-tert-butyl-1-(4-methylphenyl)-1H-pyrazol-5-yl]carbamoyl}amino)phenoxy]-N-(2-hydroxy-1-phenylethyl)imidazo[2,1-b][1,3]benzothiazole-2-carboxamide], the inhibition at 1 µM was 40 to 60%.

With `CCOC(=O)c1cnc2sc3cc(Oc4ccccc4CNC(=O)Nc4cc(C(C)(C)C)nn4-c4ccc(O)cc4)ccc3n12` [Compound 17, Ethyl 7-{2-[({[3-tert-butyl-1-(4-hydroxyphenyl)-1H-pyrazol-5-yl]carbamoyl}amino)methyl]phenoxy}imidazo[2,1-b][1,3]benzothiazole-3-carboxylate], the inhibition at 1 µM lay within 80 to 100%.

Regarding `CC(C)(C)c1cc(NC(=O)Nc2ccc(Oc3ccc4c(c3)sc3nc(C(=O)NCCN5CCOCC5)cn34)cc2)n(-c2ccc(O)c(Cl)c2)n1` [Compound 1, 7-[4-({[3-tert-butyl-1-(3-chloro-4-hydroxyphenyl)-1H-pyrazol-5-yl]carbamoyl}amino)phenoxy]-N-[2-(morpholin-4-yl)ethyl]imidazo[2,1-b][1,3]benzothiazole-2-carboxamide], the inhibition at 1 µM was in the range of 40 to 60%.

`COc1ccc(-n2nc(C(C)(C)C)cc2NC(=O)Nc2ccc(Oc3ccc4c(c3)sc3ncc(C(=O)O)n34)cc2)cc1Cl` [Compound 6, 7-[4-({[3-tert-butyl-1-(3-chloro-4-methoxyphenyl)-1H-pyrazol-5-yl]carbamoyl}amino)phenoxy]imidazo[2,1-b][1,3]benzothiazole-3-carboxylic acid]: the inhibition at 1 µM lay within 80 to 100%.

Regarding `CC(C)(C)c1cc(NC(=O)NCc2ccccc2Oc2ccc3c(c2)sc2ncc(CN4CCSCC4)n23)n(-c2ccc(O)c(Cl)c2)n1` [Compound 29, 1-[3-tert-butyl-1-(3-chloro-4-hydroxyphenyl)-1H-pyrazol-5-yl]-3-(2-{[3-(thiomorpholin-4-ylmethyl)imidazo[2,1-b][1,3]benzothiazol-7-yl]oxy}benzyl)urea], the inhibition at 1 µM was 80 to 100%.

`O=C(Nc1ccc(Oc2ccc3c(c2)sc2ncc(C(=O)O)n23)cc1)NC(CO)c1ccccc1` (stereo not drawn) [Compound 41, 7-(4-{[(2-hydroxy-1-phenylethyl)carbamoyl]amino}phenoxy)imidazo[2,1-b][1,3]benzothiazole-3-carboxylic acid]: the inhibition at 1 µM was ≤ 20%.

The values are drawn from US10227361B2, “Fused imidazobenzothiazole compounds” (TORRENT PHARMACEUTICALS LIMITED, priority 2014, dated 2019).
